According to ChEMBL document CHEMBL3758112, “Synthesis and pharmacological evaluation of trifluoromethyl containing 4-(2-pyrimidinylamino)benzamides as Hedgehog signaling pathway inhibitors” (Bioorg Med Chem, 2016):
Blank lines part the entries; values can stand above or below the compound they belong to.

What was measured:
[1] = Cmax in Sprague-Dawley rat at 1 mg/kg, iv measured during 2 mins to 24 hrs period post dose by LC-MS/MS method; format: ADME, organism-based; design: dose 1 mg/kg, route intravenous; details: in vivo
[2] = Inhibition of hedgehog signalling in mouse NIH3T3 cells stably transfected with Gli-luciferase construct incubated for 48 hrs by dual luciferase reporter gene assay; format: cell-based; details: NIH3T3, 48 h
[3] = Apparent volume of distribution in Sprague-Dawley rat at 1 mg/kg, iv measured during 2 mins to 24 hrs period post dose by LC-MS/MS method; format: ADME, organism-based; details: in vivo, read-out: Vz
[4] = Half life in Sprague-Dawley rat at 1 mg/kg, iv measured during 2 mins to 24 hrs period post dose by LC/MS/MS method; format: ADME, organism-based; details: in vivo
[5] = Clearance in Sprague-Dawley rat at 1 mg/kg, iv measured during 2 mins to 24 hrs period post dose by LC-MS/MS method; format: ADME, organism-based; details: in vivo
[6] = Mean residence time (0 to t) in Sprague-Dawley rat at 1 mg/kg, iv measured during 2 mins to 24 hrs period post dose by LC/MS/MS method; format: ADME, organism-based; details: in vivo
[7] = AUC (0 to t) in Sprague-Dawley rat at 1 mg/kg, iv measured during 2 mins to 24 hrs period post dose by LC-MS/MS method; format: ADME, organism-based; design: time 0.033-24 hr, dose 1 mg/kg, route intravenous; details: in vivo
NIH3T3 = test: Potency index, ratio of vismodegib IC50 to compound IC50 for inhibition of hedgehog signalling in mouse NIH3T3 cells stably transfected with Gli-luciferase construct; format: cell-based

Compound: Cc1ccc(CN2CCOCC2)cc1NC(=O)c1ccc(Nc2ncc(C(F)(F)F)c(-c3cccnc3)n2)cc1
- IC50 [2]: 56.2 nM

Compound: Cc1ccc(CN2CCCC2)cc1NC(=O)c1ccc(Nc2ncc(C(F)(F)F)c(-c3cnn(C)c3)n2)cc1
- IC50 [2]: 26.3 nM

Compound: O=C(c1ccc(Nc2ncc(C(F)(F)F)c(-c3ccc(OC(F)(F)F)nc3)n2)cc1)N1CCCC(N2CCOCC2)C1 (stereo unspecified)
- IC50 [2]: > 500 nM

Compound: Cc1ccc(CN2CCOCC2)cc1NC(=O)c1ccc(Nc2ncc(C(F)(F)F)c(-c3cnn(C)c3)n2)cc1
- IC50 [2]: 24.5 nM

Compound: Cc1ccc(CN2CCOCC2)cc1NC(=O)c1ccc(Nc2ncc(C(F)(F)F)c(-c3ccccn3)n2)cc1
- Cmax [1]: 1420 ng/mL
- IC50 [2]: 14.2 nM
- Vd [3]: 1.8 L/kg
- half-life [4]: 1.03 h
- clearance [5]: 20.1 mL/min/kg
- MRT last [6]: 0.93 h
- AUC(0-t) [7]: 826 ng·h/mL

Compound: CCn1cc(-c2nc(Nc3ccc(C(=O)Nc4cc(CN5CCOCC5)ccc4C)cc3)ncc2C(F)(F)F)cn1
- IC50 [2]: 16.9 nM

Compound: Cc1ccc(CN2CCOCC2)cc1NC(=O)c1ccc(Nc2ncc(C(F)(F)F)c(-c3ccccc3)n2)cc1
- Cmax [1]: 1190 ng/mL
- IC50 [2]: 102 nM
- Vd [3]: 4.13 L/kg
- half-life [4]: 2.32 h
- clearance [5]: 20.9 mL/min/kg
- MRT last [6]: 1.23 h
- AUC(0-t) [7]: 807 ng·h/mL

Compound: O=C(NC1CCN(C(=O)CO)CC1)c1ccc(Nc2ncc(C(F)(F)F)c(-c3ccc(OC(F)(F)F)nc3)n2)cc1
- IC50 [2]: > 500 nM

Compound: CS(=O)(=O)c1ccc(C(=O)Nc2ccc(Cl)c(-c3ccccn3)c2)c(Cl)c1 [VISMODEGIB]
- IC50 [2]: 7.2 nM
- AUC(0-t) [7]: 2460 ng·h/mL

More lines, main results first:

- Cmax [1]: 844 ng/mL
- IC50 [2]: 5.19 nM
- Vd [3]: 9.22 L/kg
- half-life [4]: 9.25 h
- clearance [5]: 11.6 mL/min/kg
- MRT last [6]: 7.15 h
- AUC(0-t) [7]: 1240 ng·h/mL
Compound: Cc1ccc(CN2CCN(C)CC2)cc1NC(=O)c1ccc(Nc2ncc(C(F)(F)F)c(-c3ccc(OC(F)(F)F)cc3)n2)cc1

- IC50 [2]: 4.23 nM
Compound: Cc1ccc(CN2CCCC2)cc1NC(=O)c1ccc(Nc2ncc(C(F)(F)F)c(-c3ccc(OC(F)(F)F)cc3)n2)cc1

- IC50 [2]: 18.2 nM
Compound: Cc1ccc(CN(C)C)cc1NC(=O)c1ccc(Nc2ncc(C(F)(F)F)c(-c3ccc(OC(F)(F)F)cc3)n2)cc1

- IC50 [2]: 4.24 nM
Compound: Cc1ccc(CN2CCOCC2)cc1NC(=O)c1ccc(Nc2ncc(C(F)(F)F)c(-c3ccc(C#N)cc3)n2)cc1

- IC50 [2]: 1.3 nM
Compound: Cc1cnc(Nc2ccc(C(=O)Nc3c(C)cccc3C)cc2)nc1-c1ccc(OC(F)(F)F)cc1

- IC50 [2]: 1.6 nM
Compound: Cc1cccc(C)c1NC(=O)c1ccc(Nc2ncc(F)c(-c3ccc(OC(F)(F)F)cc3)n2)cc1

- Cmax [1]: 2220 ng/mL
- IC50 [2]: 1.44 nM
- Vd [3]: 5.88 L/kg
- half-life [4]: 8.63 h
- clearance [5]: 7.82 mL/min/kg
- MRT last [6]: 4.95 h
- AUC(0-t) [7]: 1960 ng·h/mL
Compound: Cc1ccc(CN2CCOCC2)cc1NC(=O)c1ccc(Nc2ncc(C(F)(F)F)c(-c3ccc(OC(F)(F)F)cc3)n2)cc1
- Ratio IC50 (NIH3T3): 5

- IC50 [2]: 62.8 nM
Compound: CCN1CCN(Cc2ccc(C)c(NC(=O)c3ccc(Nc4ncc(C(F)(F)F)c(-c5ccc(OC(F)(F)F)cc5)n4)cc3)c2)CC1

- IC50 [2]: 24.9 nM
Compound: Cc1ccc(CN(C)C)cc1NC(=O)c1ccc(Nc2ncc(C(F)(F)F)c(-c3ccccc3)n2)cc1

- IC50 [2]: 3.12 nM
Compound: Cc1ccc(CN2CCCCC2)cc1NC(=O)c1ccc(Nc2ncc(C(F)(F)F)c(-c3ccc(OC(F)(F)F)cc3)n2)cc1

- IC50 [2]: 9.35 nM
Compound: COc1ccc(-c2nc(Nc3ccc(C(=O)Nc4cc(CN5CCCC5)ccc4C)cc3)ncc2C(F)(F)F)cn1
